Source: ChEMBL document CHEMBL3045530, “Synthesis, antimycobacterial, antiviral, antimicrobial activities, and QSAR studies of isonicotinic acid-1-(substituted phenyl)-ethylidene/cycloheptylidene hydrazides” (Med Chem Res, 2012)
Converted amounts (≈) assume the structure as drawn.

What was measured:
[1] = tested on: HEL; assay: Cytostatic against Homo sapiens (human) HEL cells assessed as alteration in cell morphology by microscopy; type: ADME, cell-based
[2] = Cytotoxicity against Chlorocebus aethiops (African green monkey) Vero cells assessed as alteration in cell morphology by microscopy; type: cell-based; conditions: chlorocebus sabaeus, read-out: MTC
[3] = tested on: Punta Toro virus; assay: Antiviral activity against Punta Toro virus infected Vero cells assessed as inhibition of virus-induced cytopathicity; type: functional, organism-based
[4] = tested on: Coxsackievirus B4; assay: Antiviral activity against Human coxsackievirus B4 infected Vero cells assessed as inhibition of virus-induced cytopathicity; type: functional, organism-based; conditions: Enterovirus B
[5] = tested on: Sindbis virus; assay: Antiviral activity against Sindbis virus infected Vero cells assessed as inhibition of virus-induced cytopathicity; type: functional, organism-based
[6] = tested on: Mammalian orthoreovirus 1; assay: Antiviral activity against Mammalian orthoreovirus 1 infected Vero cells assessed as inhibition of virus-induced cytopathicity by microscopy; type: functional, organism-based; conditions: Mammalian orthoreovirus 1, Vero
[7] = tested on: Human respirovirus 3; assay: Antiviral activity against Human parainfluenza virus 3 infected Vero cells assessed as inhibition of virus-induced cytopathicity by microscopy; type: functional, organism-based; conditions: Human respirovirus 3, Vero
[8] = Cytotoxicity against Homo sapiens (human) HeLa cells assessed as alteration in cell morphology by microscopy; type: cell-based; conditions: read-out: MTC
[9] = tested on: Respiratory syncytial virus; assay: Antiviral activity against Respiratory syncytial virus infected human HeLa cells assessed as inhibition of virus-induced cytopathicity by microscopy; type: functional, organism-based
[10] = tested on: Coxsackievirus B4; assay: Antiviral activity against Human coxsackievirus B4 infected human HeLa cells assessed as inhibition of virus-induced cytopathicity by microscopy; type: functional, organism-based; conditions: Enterovirus B
[11] = tested on: Vesicular stomatitis virus; assay: Antiviral activity against Vesicular stomatitis virus infected human HeLa cells assessed as inhibition of virus-induced cytopathicity by microscopy; type: functional, organism-based
[12] = Cytotoxicity against Homo sapiens (human) HEL cells assessed as alteration in cell morphology by microscopy; type: cell-based; conditions: for MCC: read-out: MTC
[13] = tested on: Human herpesvirus 3 strain Oka vaccine; assay: Antiviral activity against Human herpesvirus 3 strain Oka vaccine OKA 07-1 (Varicella zoster virus ) infected in human HEL cells assessed as inhibition of virus-induced cytopathicity; type: functional, organism-based; conditions: Human alphaherpesvirus 3, HEL
[14] = tested on: Human herpesvirus 5 strain AD169; assay: Antiviral activity against Human herpesvirus 5 strain AD169 Davis infected human HEL cells assessed as inhibition of virus-induced cytopathicity by microscopy; type: functional, organism-based; conditions: Human betaherpesvirus 5, Davis
[15] = tested on: Aspergillus niger; assay: Antimicrobial activity against Aspergillus niger after 7 days by tube dilution method; type: functional
[16] = tested on: Candida albicans; assay: Antimicrobial activity against Candida albicans after 48 hr by tube dilution method; type: functional
[17] = tested on: Escherichia coli; assay: Antimicrobial activity against Escherichia coli after 24 hr by tube dilution method; type: functional
[18] = tested on: Staphylococcus aureus; assay: Antimicrobial activity against Staphylococcus aureus after 24 hr by tube dilution method; type: functional
[19] = tested on: Bacillus subtilis; assay: Antimicrobial activity against Bacillus subtilis after 24 hr by tube dilution method; type: functional
[20] = tested on: Human alphaherpesvirus 1; assay: Antiviral activity against TK(-) aciclovir-resistant Human herpesvirus 1 strain KOS infected in human HEL cells assessed as inhibition of virus-induced cytopathicity; type: functional, organism-based; conditions: Human alphaherpesvirus 1, KOS
[21] = tested on: Human alphaherpesvirus 2; assay: Antiviral activity against Human herpesvirus 2 strain G infected human HEL cells assessed as inhibition of virus-induced cytopathicity by microscopy; type: functional, organism-based; conditions: Human alphaherpesvirus 2, strain G
[22] = tested on: Vaccinia virus; assay: Antiviral activity against Vaccinia virus infected human HEL cells assessed as inhibition of virus-induced cytopathicity by microscopy; type: functional, organism-based; conditions: Orthopoxvirus vaccinia
[23] = tested on: Human alphaherpesvirus 1; assay: Antiviral activity against Human herpesvirus 1 strain KOS infected human HEL cells assessed as inhibition of virus-induced cytopathicity by microscopy by microscopy; type: functional, organism-based; conditions: Human alphaherpesvirus 1, KOS
[24] = Cytotoxicity against Homo sapiens (human) MT4 cells after 4 days by MTT assay; type: cell-based
[25] = tested on: Human immunodeficiency virus 2; assay: Antiviral activity against Human immunodeficiency virus type 2 (ISOLATE ROD) infected MT4 cells assessed as inhibition of virus-induced cytopathic effect after 4 days by MTT assay; type: functional, organism-based; conditions: Human immunodeficiency virus 2, ISOLATE ROD, MT4, 96 h
[26] = tested on: Human immunodeficiency virus 1; assay: Antiviral activity against Human immunodeficiency virus 1 IIIB infected MT4 cells assessed as inhibition of virus-induced cytopathic effect after 4 days by MTT assay; type: functional, organism-based; conditions: MT4, 96 h

In the case of `C/C(=N\NC(=O)c1ccncc1)c1ccc(O)cc1`, the Activity [1] is reported as “Toxic”, the MCC [2] is reported as at least 20 µg/mL and the EC50 [3] is reported as over 20 mg/L. For the same compound, the EC50 [4] was over 20 mg/L, the EC50 [5] was over 20 mg/L and the EC50 [6] was over 20 mg/L. The EC50 [7] was over 20 mg/L, the MCC [8] was 100 µg/mL and the EC50 [9] was over 20 mg/L. For the same compound, the EC50 [10] was over 20 mg/L, the EC50 [11] was over 20 mg/L and the CC50 [12] was 91 mg/L (≈ 356 µM). For the same compound, the MCC [12] was 100 µg/mL, the EC50 [13] was over 20 mg/L and the EC50 [14] was over 20 mg/L. The “-logMIC” value [15] was 2.31, the “-logMIC” value [16] was 2.31 and the “-logMIC” value [17] was 2.01. The “-logMIC” value [18] was 2.01, the “-logMIC” value [19] was 2.01 and the EC50 [20] was over 20 mg/L. The EC50 [21] was over 20 mg/L, the EC50 [22] was over 20 mg/L and the EC50 [23] was over 20 mg/L. It also gave a CC50 at 96 h [24] of 95 mg/L (≈ 372 µM), an EC50 [25] of over 95 mg/L and an EC50 [26] of over 95 mg/L.

For `C/C(=N\NC(=O)c1ccncc1)c1ccc(O)cc1O`, the Activity [1] was “Toxic”, the MCC [2] was 20 µg/mL and the EC50 [3] was over 4 mg/L. The EC50 [4] was over 4 mg/L, the EC50 [5] was over 4 mg/L and the EC50 [6] was over 4 mg/L. For the same compound, the EC50 [7] was over 4 mg/L, the MCC [8] was 4 µg/mL and the EC50 [9] was over 0.8 mg/L. For the same compound, the EC50 [10] was over 0.8 mg/L, the EC50 [11] was over 0.8 mg/L and the CC50 [12] was 2.1 mg/L (≈ 7.74 µM). For the same compound, the MCC [12] was over 100 µg/mL, the EC50 [13] was 8 mg/L (≈ 29.5 µM) and the EC50 [14] was over 4 mg/L. For the same compound, the “-logMIC” value [15] was 2.34, the “-logMIC” value [16] was 2.64 and the “-logMIC” value [17] was 2.04. The “-logMIC” value [18] was 2.04, the “-logMIC” value [19] was 2.04 and the EC50 [20] was 2 mg/L (≈ 7.37 µM). For the same compound, the EC50 [21] was 2 mg/L (≈ 7.37 µM), the EC50 [22] was 2.5 mg/L (≈ 9.22 µM) and the EC50 [23] was 2.5 mg/L (≈ 9.22 µM). The CC50 at 96 h [24] was 9.7 mg/L (≈ 35.8 µM), the EC50 [25] was over 9.7 mg/L and the EC50 [26] was over 9.7 mg/L.

With `C/C(=N\NC(=O)c1ccncc1)c1ccccc1Br` the Activity [1] was “Toxic”, the “-logMIC” value [15] was 2.41 and the “-logMIC” value [16] was 2.71. The “-logMIC” value [17] was 2.41, the “-logMIC” value [18] was 2.41 and the “-logMIC” value [19] was 2.71.

With `OC(Cn1cncn1)(Cn1cncn1)c1ccc(F)cc1F` [FLUCONAZOLE] the “-logMIC” value [15] was 2.64 and the “-logMIC” value [16] was 2.64.

With `NNC(=O)c1ccncc1` [ISONIAZID] the “-logMIC” value [15] was 2.04, the “-logMIC” value [16] was 2.34 and the “-logMIC” value [17] was 1.74. The “-logMIC” value [18] was 2.04 and the “-logMIC” value [19] was 1.74.

In the case of `Cc1ccnc2c1NC(=O)c1cccnc1N2C1CC1` [NEVIRAPINE], the CC50 at 96 h [24] is reported as over 4 mg/L and the EC50 [25] is reported as over 4 mg/L.

In the case of `CCn1cc(C(=O)O)c(=O)c2cc(F)c(N3CCNCC3)cc21` [NORFLOXACIN], the “-logMIC” value [17] is reported as 2.61, the “-logMIC” value [18] is reported as 2.61 and the “-logMIC” value [19] is reported as 2.61.

`Cc1cn([C@H]2C[C@H](N=[N+]=[N-])[C@@H](CO)O2)c(=O)[nH]c1=O` [ZIDOVUDINE] showed a CC50 at 96 h [24] of over 25 mg/L.
